From patent US20230074545A1, “TREATMENT OF CANCER WITH CDK12/13 INHIBITORS” (Kinnate Biopharma Inc., priority 2019, published 2023)

How the values were obtained:
Assay in all cases: Radiometric kinase panel
Type in all cases: biochemical
ACVRL1 = molecular target: T1, ACVRL1 (Homo sapiens, UniProt P37023)
T1 construct: either as full-length or enzymatically active fragments; purchased ProQinase GmbH (Reaction Biology)
Outline: (§1)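 Activity was measured radiometrically from [gamma-33P]-ATP incorporation into substrate. The kinases were recombinant human GST- or His-tagged proteins, full-length or active fragments, expressed in Sf9 or E. coli. Compound in 10% DMSO was added before the enzyme/substrate mix, which started the reaction.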

AKT3 = molecular target: T2, AKT3 (Homo sapiens, UniProt Q9Y243)
T2 construct: purchased ProQinase GmbH (Reaction Biology)
Outline: as §1

AuroraA = molecular target: T3, AuroraA (Homo sapiens, UniProt O14965)
T3 construct: either as full-length or enzymatically active fragments; purchased ProQinase GmbH (Reaction Biology)
T3 sequence (O14965 whole entry, the tested form may be a part): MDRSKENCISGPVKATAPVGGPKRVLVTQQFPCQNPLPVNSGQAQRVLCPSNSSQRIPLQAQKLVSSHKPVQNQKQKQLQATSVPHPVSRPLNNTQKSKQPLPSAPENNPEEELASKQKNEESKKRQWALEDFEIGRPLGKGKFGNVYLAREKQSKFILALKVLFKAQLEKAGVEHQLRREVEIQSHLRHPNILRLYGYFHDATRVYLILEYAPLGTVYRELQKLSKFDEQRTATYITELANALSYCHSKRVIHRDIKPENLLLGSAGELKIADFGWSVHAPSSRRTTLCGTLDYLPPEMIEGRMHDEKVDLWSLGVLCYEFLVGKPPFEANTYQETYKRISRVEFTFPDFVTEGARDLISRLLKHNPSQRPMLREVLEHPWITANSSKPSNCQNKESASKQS
Outline: as §1

AuroraC = molecular target: T4, AuroraC (Homo sapiens, UniProt Q9UQB9)
T4 construct: either as full-length or enzymatically active fragments; purchased ProQinase GmbH (Reaction Biology)
Outline: as §1

CDK12/CycK = molecular target: T5, CDK12/CycK (Homo sapiens, UniProt Q9NYV4)
T5 construct: either as full-length or enzymatically active fragments; purchased ProQinase GmbH (Reaction Biology)
Outline: as §1

CDK17/p35NCK = molecular target: T6, CDK17/p35NCK (Homo sapiens, UniProt Q00537)
T6 construct: either as full-length or enzymatically active fragments; purchased ProQinase GmbH (Reaction Biology); host or cells: Sf9 insect cells or E. coli
T6 sequence (Q00537 whole entry, the tested form may be a part): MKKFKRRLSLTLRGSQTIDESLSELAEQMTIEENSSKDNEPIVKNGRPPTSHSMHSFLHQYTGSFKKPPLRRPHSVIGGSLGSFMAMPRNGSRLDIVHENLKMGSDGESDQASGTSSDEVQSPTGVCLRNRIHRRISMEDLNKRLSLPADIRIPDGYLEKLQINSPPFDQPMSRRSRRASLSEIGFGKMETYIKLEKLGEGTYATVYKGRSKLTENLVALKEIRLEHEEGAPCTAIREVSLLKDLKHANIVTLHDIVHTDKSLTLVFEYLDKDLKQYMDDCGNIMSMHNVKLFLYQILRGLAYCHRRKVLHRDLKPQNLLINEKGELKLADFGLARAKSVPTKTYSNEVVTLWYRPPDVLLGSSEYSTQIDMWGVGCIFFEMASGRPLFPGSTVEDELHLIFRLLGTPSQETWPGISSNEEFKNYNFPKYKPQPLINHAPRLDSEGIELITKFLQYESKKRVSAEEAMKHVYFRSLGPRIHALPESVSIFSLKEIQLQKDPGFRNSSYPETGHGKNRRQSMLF
T6 sequence (Q15078 whole entry partner, the tested form may be a part): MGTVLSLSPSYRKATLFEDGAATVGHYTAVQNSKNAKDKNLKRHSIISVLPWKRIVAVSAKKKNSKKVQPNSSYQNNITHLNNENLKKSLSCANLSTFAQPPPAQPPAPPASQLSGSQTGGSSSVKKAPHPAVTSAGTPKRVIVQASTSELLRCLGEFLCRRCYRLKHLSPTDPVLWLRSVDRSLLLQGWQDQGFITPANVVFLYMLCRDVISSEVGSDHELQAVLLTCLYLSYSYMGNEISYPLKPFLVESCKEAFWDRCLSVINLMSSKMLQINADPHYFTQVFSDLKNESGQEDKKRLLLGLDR
Outline: as §1

CDK3/CycC = molecular target: T7, CDK3/CycC (Homo sapiens, UniProt Q00526)
T7 construct: purchased ProQinase GmbH (Reaction Biology); host or cells: Sf9 insect cells or E. coli (not specified per kinase)
Outline: as §1

CDK8/CycC = molecular target: T8, CDK8/CycC (Homo sapiens, UniProt P49336)
T8 construct: either as full-length or enzymatically active fragments; purchased ProQinase GmbH (Reaction Biology)
T8 sequence (P49336 whole entry, the tested form may be a part): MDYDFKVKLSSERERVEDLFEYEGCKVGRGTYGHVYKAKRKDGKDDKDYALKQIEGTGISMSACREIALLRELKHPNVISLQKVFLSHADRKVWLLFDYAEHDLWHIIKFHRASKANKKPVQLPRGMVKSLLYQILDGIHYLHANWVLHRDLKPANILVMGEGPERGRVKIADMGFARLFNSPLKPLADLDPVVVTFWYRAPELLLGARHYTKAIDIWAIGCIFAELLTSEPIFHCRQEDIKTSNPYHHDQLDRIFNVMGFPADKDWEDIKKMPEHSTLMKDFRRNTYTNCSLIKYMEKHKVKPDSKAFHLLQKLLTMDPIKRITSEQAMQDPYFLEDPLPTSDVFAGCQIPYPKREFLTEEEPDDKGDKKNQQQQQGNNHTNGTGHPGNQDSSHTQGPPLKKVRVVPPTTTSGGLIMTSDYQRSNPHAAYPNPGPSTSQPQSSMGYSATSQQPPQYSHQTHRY
T8 sequence (P24863 whole entry partner, the tested form may be a part): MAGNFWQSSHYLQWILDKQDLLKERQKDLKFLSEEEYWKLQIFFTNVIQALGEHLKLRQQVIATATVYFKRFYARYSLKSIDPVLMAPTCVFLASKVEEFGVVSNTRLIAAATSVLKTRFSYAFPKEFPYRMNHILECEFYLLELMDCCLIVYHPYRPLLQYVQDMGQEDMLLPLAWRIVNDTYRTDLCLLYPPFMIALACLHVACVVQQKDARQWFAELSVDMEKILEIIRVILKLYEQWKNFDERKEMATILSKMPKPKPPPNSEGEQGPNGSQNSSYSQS
Outline: as §1

EPHA7 = molecular target: T9, EPHA7 (Homo sapiens, UniProt Q15375)
T9 construct: either as full-length or enzymatically active fragments; purchased ProQinase GmbH (Reaction Biology)
Outline: as §1

FAK = molecular target: T10, FAK (Homo sapiens, UniProt Q05397)
T10 construct: either as full-length or enzymatically active fragments; purchased ProQinase GmbH (Reaction Biology); host or cells: Sf9 insect cells or E. coli
Outline: as §1

FGFR2 = molecular target: T11, FGFR2 (Homo sapiens, UniProt P21802)
T11 construct: purchased ProQinase GmbH (Reaction Biology); host or cells: Sf9 insect cells or E. coli (not specified per kinase)
Outline: as §1

MAP4K5 = molecular target: T12, MAP4K5 (Homo sapiens, UniProt Q9Y4K4)
T12 construct: purchased ProQinase GmbH (Reaction Biology)
Outline: as §1

MARK4 = molecular target: T13, MARK4 (Homo sapiens, UniProt Q96L34)
T13 construct: purchased ProQinase GmbH (Reaction Biology)
T13 sequence (Q96L34 whole entry): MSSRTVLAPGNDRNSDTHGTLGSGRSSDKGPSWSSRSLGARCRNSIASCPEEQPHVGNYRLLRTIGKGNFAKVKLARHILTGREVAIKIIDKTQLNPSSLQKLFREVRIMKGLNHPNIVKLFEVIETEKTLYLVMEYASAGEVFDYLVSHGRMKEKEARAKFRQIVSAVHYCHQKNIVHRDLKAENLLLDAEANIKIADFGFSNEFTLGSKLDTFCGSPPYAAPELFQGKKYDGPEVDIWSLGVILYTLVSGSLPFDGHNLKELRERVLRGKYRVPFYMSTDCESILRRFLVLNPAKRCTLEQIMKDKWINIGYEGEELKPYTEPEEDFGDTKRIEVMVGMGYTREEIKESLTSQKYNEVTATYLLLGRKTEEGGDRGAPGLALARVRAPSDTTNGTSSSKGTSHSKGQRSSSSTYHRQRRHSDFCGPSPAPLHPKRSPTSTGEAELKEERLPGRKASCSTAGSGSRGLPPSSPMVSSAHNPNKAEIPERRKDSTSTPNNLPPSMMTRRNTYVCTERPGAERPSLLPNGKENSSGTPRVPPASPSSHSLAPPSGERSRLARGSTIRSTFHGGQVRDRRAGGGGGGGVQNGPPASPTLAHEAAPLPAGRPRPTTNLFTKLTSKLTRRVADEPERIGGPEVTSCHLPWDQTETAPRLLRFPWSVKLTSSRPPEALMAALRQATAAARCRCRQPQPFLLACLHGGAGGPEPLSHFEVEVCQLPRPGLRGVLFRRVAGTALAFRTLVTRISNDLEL
Outline: as §1

MELK = molecular target: T14, MELK (Homo sapiens, UniProt Q14680)
T14 construct: purchased ProQinase GmbH (Reaction Biology); host or cells: Sf9 insect cells or E. coli (not specified per kinase)
Outline: as §1

MERTK = molecular target: T15, MERTK (Homo sapiens, UniProt Q12866)
T15 construct: either as full-length or enzymatically active fragments; purchased ProQinase GmbH (Reaction Biology)
Outline: as §1

MKK6 SDTD = molecular target: T16, MKK6 SDTD (Homo sapiens, UniProt P52564, S207D/T211D)
T16 construct: either as full-length or enzymatically active fragments; purchased ProQinase GmbH (Reaction Biology); host or cells: Sf9 insect cells or E. coli (not specified per kinase)
Outline: as §1

MUSK = molecular target: T17, MUSK (Homo sapiens, UniProt O15146)
T17 construct: either as full-length or enzymatically active fragments; purchased ProQinase GmbH (Reaction Biology)
Outline: as §1

NEK2 = molecular target: T18, NEK2 (Homo sapiens, UniProt P51955)
T18 construct: either as full-length or enzymatically active fragments; purchased ProQinase GmbH (Reaction Biology)
Outline: as §1

PKCdelta = molecular target: T19, PKCdelta (Homo sapiens, UniProt Q05655)
T19 construct: purchased ProQinase GmbH (Reaction Biology)
Outline: as §1

RAF1 YDYD = molecular target: T20, RAF1 YDYD (Homo sapiens, UniProt P04049, Y340D/Y341D)
T20 construct: either as full-length or enzymatically active fragments; purchased ProQinase GmbH (Reaction Biology); host or cells: Sf9 insect cells or E. coli (not specified per kinase)
T20 sequence (P04049 307-648 Y340D/Y341D limits assumed): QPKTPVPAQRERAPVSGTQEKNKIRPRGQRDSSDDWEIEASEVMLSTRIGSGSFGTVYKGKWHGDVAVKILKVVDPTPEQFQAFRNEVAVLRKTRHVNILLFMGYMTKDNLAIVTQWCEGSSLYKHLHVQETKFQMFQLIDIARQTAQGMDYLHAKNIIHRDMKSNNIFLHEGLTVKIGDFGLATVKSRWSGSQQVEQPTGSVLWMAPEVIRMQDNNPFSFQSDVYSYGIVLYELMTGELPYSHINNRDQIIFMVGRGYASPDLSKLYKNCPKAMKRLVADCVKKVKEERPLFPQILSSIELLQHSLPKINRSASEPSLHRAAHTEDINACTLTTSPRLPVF
Outline: as §1

RON = molecular target: T21, RON (Homo sapiens, UniProt Q04912)
T21 construct: purchased ProQinase GmbH (Reaction Biology)
T21 sequence (Q04912 25-1400): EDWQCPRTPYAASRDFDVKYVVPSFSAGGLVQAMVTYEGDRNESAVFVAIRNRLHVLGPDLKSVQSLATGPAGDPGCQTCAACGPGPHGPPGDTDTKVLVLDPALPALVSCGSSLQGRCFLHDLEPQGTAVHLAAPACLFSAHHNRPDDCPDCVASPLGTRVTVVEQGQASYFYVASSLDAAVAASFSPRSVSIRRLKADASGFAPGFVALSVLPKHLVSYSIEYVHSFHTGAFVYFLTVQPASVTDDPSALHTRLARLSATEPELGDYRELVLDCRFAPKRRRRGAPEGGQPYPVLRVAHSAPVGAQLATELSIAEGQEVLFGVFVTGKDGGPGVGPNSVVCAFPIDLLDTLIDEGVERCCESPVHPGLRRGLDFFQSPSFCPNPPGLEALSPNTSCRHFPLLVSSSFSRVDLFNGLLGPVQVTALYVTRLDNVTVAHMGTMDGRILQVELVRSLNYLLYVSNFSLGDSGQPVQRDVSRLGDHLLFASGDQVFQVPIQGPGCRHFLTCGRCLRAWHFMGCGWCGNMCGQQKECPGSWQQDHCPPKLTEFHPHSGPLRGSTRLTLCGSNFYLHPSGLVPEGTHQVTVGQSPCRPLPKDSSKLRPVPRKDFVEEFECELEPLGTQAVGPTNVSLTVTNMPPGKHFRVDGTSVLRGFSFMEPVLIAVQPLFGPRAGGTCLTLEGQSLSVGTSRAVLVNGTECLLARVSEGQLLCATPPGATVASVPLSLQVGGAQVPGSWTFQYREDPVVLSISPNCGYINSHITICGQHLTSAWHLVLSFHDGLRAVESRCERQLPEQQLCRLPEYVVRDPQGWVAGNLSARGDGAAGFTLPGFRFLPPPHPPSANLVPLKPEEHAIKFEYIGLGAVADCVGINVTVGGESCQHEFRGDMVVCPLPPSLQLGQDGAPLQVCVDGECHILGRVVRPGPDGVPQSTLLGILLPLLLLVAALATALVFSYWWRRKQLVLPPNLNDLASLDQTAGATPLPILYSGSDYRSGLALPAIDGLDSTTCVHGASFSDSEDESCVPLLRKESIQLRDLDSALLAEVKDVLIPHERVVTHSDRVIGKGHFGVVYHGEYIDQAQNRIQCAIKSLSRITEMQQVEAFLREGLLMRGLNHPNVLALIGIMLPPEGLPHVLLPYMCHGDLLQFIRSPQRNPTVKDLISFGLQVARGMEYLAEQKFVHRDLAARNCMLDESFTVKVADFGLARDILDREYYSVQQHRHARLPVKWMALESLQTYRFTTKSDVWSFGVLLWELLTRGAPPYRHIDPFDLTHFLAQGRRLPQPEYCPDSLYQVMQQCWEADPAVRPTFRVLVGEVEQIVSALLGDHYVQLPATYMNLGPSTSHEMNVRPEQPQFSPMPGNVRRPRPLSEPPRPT
Outline: as §1

RPS6KA4 = molecular target: T22, RPS6KA4 (Homo sapiens, UniProt O75676)
T22 construct: either as full-length or enzymatically active fragments; purchased ProQinase GmbH (Reaction Biology)
Outline: as §1

RPS6KA6 = molecular target: T23, RPS6KA6 (Homo sapiens, UniProt Q9UK32)
T23 construct: purchased ProQinase GmbH (Reaction Biology)
Outline: as §1

SIK2 = molecular target: T24, SIK2 (Homo sapiens, UniProt Q9H0K1)
T24 construct: either as full-length or enzymatically active fragments; purchased ProQinase GmbH (Reaction Biology)
Outline: as §1

STK23 = molecular target: T25, STK23 (Homo sapiens, UniProt Q9UPE1)
T25 construct: either as full-length or enzymatically active fragments; purchased ProQinase GmbH (Reaction Biology)
T25 sequence (Q9UPE1 whole entry, the tested form may be a part): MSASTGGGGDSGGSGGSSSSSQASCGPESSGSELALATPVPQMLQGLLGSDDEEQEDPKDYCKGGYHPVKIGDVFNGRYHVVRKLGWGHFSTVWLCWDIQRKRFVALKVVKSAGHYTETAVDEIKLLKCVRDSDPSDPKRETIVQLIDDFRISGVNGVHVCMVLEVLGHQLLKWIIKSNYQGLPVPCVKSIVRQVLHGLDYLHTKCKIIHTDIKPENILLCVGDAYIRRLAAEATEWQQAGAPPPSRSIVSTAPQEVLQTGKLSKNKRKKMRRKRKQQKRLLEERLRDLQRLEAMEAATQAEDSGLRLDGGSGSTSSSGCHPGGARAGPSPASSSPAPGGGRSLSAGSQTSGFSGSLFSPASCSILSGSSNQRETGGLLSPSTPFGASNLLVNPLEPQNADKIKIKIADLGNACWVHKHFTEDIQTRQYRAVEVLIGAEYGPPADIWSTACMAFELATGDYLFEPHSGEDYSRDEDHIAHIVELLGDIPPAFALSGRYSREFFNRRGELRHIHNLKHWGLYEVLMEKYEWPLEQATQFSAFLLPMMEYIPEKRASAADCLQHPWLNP
Outline: as §1

STK33 = molecular target: T26, STK33 (Homo sapiens, UniProt Q9BYT3)
T26 construct: either as full-length or enzymatically active fragments; purchased ProQinase GmbH (Reaction Biology)
Outline: as §1

TGFBR1 = molecular target: T27, TGFBR1 (Homo sapiens, UniProt P36897)
T27 construct: either as full-length or enzymatically active fragments; purchased ProQinase GmbH (Reaction Biology)
Outline: as §1

VEGFR2 = molecular target: T28, VEGFR2 (Homo sapiens, UniProt P35968)
T28 construct: either as full-length or enzymatically active fragments; purchased ProQinase GmbH (Reaction Biology); host or cells: Sf9 insect cells or E. coli
Outline: as §1

VEGFR3 = molecular target: T29, VEGFR3 (Homo sapiens, UniProt P35916)
T29 construct: either as full-length or enzymatically active fragments; purchased ProQinase GmbH (Reaction Biology)
Outline: as §1

p38delta = molecular target: T30, p38delta (Homo sapiens, UniProt O15264)
T30 construct: either as full-length or enzymatically active fragments; purchased ProQinase GmbH (Reaction Biology)
Outline: as §1

C=CC(=O)Nc1ccc(C(=O)N2CC[C@@H](Nc3ncc(C#N)cn3)C2)cc1 [Compound 4, (R)-N-(4-(3-((5-cyanopyrimidin-2-yl)amino)pyrrolidine-1-carbonyl)phenyl)acrylamide]
inhibition at 1 µM (ACVRL1): 3%
inhibition at 1 µM (AKT3): -2%
inhibition at 1 µM (AuroraA): 5%
inhibition at 1 µM (AuroraC): 16%
inhibition at 1 µM (CDK12/CycK): 90%
inhibition at 1 µM (CDK17/p35NCK): 12%
inhibition at 1 µM (CDK3/CycC): 1%
inhibition at 1 µM (CDK8/CycC): 3%
inhibition at 1 µM (EPHA7): -3%
inhibition at 1 µM (FAK): -15%
inhibition at 1 µM (FGFR2): 0%
inhibition at 1 µM (MAP4K5): 0%
inhibition at 1 µM (MARK4): -1%
inhibition at 1 µM (MELK): 1%
inhibition at 1 µM (MERTK): -8%
inhibition at 1 µM (MKK6 SDTD): 11%
inhibition at 1 µM (MUSK): 7%
inhibition at 1 µM (NEK2): -8%
inhibition at 1 µM (PKCdelta): -2%
inhibition at 1 µM (RAF1 YDYD): 9%
inhibition at 1 µM (RON): -1%
inhibition at 1 µM (RPS6KA4): 5%
inhibition at 1 µM (RPS6KA6): -3%
inhibition at 1 µM (SIK2): -4%
inhibition at 1 µM (STK23): 7%
inhibition at 1 µM (STK33): 5%
inhibition at 1 µM (TGFBR1): 7%
inhibition at 1 µM (VEGFR2): 12%
inhibition at 1 µM (VEGFR3): -5%
inhibition at 1 µM (p38delta): 5%
